# Molecular target: T1, renin (Homo sapiens, UniProt P00797)
# T1 construct: This test measures the formation of angiotensin I in human plasma; from tissue; host or cells: human plasma
# T1 sequence (P00797 67-406): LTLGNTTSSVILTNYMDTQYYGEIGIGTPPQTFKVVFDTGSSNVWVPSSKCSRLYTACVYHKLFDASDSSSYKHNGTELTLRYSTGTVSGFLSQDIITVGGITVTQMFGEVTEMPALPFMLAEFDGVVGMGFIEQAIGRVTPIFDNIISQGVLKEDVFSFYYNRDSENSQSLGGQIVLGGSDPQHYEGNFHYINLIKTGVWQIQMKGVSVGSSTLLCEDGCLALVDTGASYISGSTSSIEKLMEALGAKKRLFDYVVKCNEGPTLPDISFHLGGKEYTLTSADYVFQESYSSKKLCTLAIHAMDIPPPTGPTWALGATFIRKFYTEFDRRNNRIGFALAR
# Test: in vitro test of Nussberger et al.: formation of angiotensin I in human plasma (radioimmunoassay)
# Format: biochemical
# Details: inhibition of formation of angiotensin I in human plasma
# Protocol: The effect of renin inhibitors is detected inter alia experimentally by means of in vitro tests where the reduction in the formation of angiotensin I is measured in various systems (human plasma, purified human renin together with synthetic or natural renin substrate). The following in vitro test of Nussberger et al. (1987) J. Cardiovascular Pharmacol., Vol. 9, pp. 39-44, is used inter alia. This test measures the formation of angiotensin I in human plasma. The amount of angiotensin I formed is determined in a subsequent radioimmunoassay. The effect of inhibitors on the formation of angiotensin I is tested in this system by adding various concentrations of these substances. The IC50 is defined as the concentration of the particular inhibitor which reduces the formation of angiotensin I by 50%. The compounds of the present invention show inhibitory effects in the in vitro systems at minimal concentrations of about 10^−6 to about 10^−10 mol/I.
row,IC50 [nM],SMILES
1,40.4,"COCCCN1CCOc2ccc(CO[C@H]3CNCC[C@]3(O)c3ccc(COCCOC)cc3)cc21 [Example 361, (3S,4S)-4-[4-(2-Methoxy-ethoxymethyl)-phenyl]-3-[4-(3-methoxy-propyl)-3,4-dihydro-2H-benzo[1,4]oxazin-6-ylmethoxy]-piperidin-4-ol]"
2,123,"COCCCN1CCOc2ccc(CO[C@H]3CNCC[C@]3(O)c3ccc(COC[C@@H](C)Cn4cnnn4)cc3)cc21 [Example 371, (3S,4S)-3-[4-(3-Methoxy-propyl)-3,4-dihydro-2H-benzo[1,4]oxazin-6-ylmethoxy]-4-[4-((S)-2-methyl-3-tetrazol-1-yl-propoxymethyl)-phenyl]-piperidin-4-ol]"
3,84.3,"CCO[C@H](C)COCc1ccc([C@@]2(O)CCNC[C@@H]2OCc2ccc3c(c2)N(CCCOC)CCO3)c(OCCOC)c1 [Example 375, (3S,4S)-4-[4-((R)-2-Ethoxy-propoxymethyl)-2-(2-methoxy-ethoxy)-phenyl]-3-[4-(3-methoxy-propyl)-3,4-dihydro-2H-benzo[1.4]oxazin-6-ylmethoxy]-piperidin-4-ol]"
4,9.6,"CCO[C@H](C)COCc1ccc([C@@]2(O)CCNC[C@@H]2OCc2ccc3c(c2)N(CCCOC)CCO3)c(CCOC)c1 [Example 378, (3S,4S)-4-[4-((R)-2-Ethoxy-propoxymethyl)-2-(2-methoxy-ethyl)-phenyl]-3-[4-(3-methoxy-propyl)-3,4-dihydro-2H-benzo[1,4]oxazin-6-ylmethoxy]-piperidin-4-ol]"

# — patent publication US20110212950A1, “4,4-DISUBSTITUTED PIPERIDINES” (NOVARTIS AG, priority 2007, published 2011)
